Earlier results, collected in patent US10702482B2, “Slow-release solid oral compositions” (GNOSIS SPA, priority 2013, dated 2020).

For C[S+](CC[C@H](N)C(=O)O)C[C@H]1O[C@@H](n2cnc3c(N)ncnc32)[C@H](O)[C@@H]1O (stereo partly drawn) [SAMe, S-adenosyl-L-methionine], the “oral bioavailability (in words)” value is listed as “rather poor oral bioavailability”.
